Broadly, the pIC50 is the IC50 on a negative log10 scale, so that one unit is a factor of ten. A low value points to a large IC50.

In the test the target is T1, PI3Kα H1047R (T47D cells) (Homo sapiens, UniProt P42336, H1047R).
T1 construct: endogenous in cells; host or cells: T47D cells
Description: PI3Kα cellular assay: pAKT HTRF in T47D cells after EGF stimulation. Type of test: cell-based. The note with it: for pIC50: T47D cells (PI3Kα H1047R), pAKT S473 HTRF, 1 hr compound, 20 ng/ml EGF 10 min. Put shortly:
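pAKT read by HTRF in lysates of EGF-stimulated (20 ng/mL, 10 min) T47D H1047R cells. Before stimulation, serum-starved cells (16 h) received compound for 1 h at 37 °C, dosed from 10,000 nM down to 0.5 nM in 3-fold steps.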
On the technique in general: Time-resolved FRET reads energy transfer from a long-lived donor to a nearby acceptor.

pIC50: −log10 of the molar value.

T1 sequence (P42336 whole entry H1047R): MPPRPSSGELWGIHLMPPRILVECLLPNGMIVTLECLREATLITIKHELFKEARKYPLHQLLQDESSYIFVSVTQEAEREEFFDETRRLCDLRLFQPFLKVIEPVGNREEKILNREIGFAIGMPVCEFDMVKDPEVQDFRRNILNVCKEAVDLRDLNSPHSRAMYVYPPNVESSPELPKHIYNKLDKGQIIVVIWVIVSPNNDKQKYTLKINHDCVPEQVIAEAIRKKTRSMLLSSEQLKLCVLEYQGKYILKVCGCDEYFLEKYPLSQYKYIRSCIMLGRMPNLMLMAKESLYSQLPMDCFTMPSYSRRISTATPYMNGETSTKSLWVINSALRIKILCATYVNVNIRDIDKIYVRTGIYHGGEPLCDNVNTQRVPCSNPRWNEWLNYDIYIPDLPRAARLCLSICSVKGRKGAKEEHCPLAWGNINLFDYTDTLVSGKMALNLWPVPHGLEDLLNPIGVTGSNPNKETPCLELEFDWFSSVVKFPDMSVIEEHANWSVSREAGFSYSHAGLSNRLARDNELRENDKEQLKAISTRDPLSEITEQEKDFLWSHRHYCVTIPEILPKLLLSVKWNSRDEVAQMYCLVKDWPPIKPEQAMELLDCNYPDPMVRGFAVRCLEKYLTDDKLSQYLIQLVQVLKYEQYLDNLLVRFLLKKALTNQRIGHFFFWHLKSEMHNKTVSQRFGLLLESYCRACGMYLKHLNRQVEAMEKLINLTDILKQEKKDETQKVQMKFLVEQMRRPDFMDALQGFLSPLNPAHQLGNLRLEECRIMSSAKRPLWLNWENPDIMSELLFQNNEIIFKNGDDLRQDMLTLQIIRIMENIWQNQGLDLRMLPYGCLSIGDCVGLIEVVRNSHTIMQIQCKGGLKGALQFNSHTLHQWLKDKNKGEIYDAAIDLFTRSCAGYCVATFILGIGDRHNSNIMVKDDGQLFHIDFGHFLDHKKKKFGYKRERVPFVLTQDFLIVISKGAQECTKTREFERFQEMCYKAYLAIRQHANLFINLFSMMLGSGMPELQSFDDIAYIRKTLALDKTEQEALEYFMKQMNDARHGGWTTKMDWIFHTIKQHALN
T1 sequence (P27986 whole entry partner): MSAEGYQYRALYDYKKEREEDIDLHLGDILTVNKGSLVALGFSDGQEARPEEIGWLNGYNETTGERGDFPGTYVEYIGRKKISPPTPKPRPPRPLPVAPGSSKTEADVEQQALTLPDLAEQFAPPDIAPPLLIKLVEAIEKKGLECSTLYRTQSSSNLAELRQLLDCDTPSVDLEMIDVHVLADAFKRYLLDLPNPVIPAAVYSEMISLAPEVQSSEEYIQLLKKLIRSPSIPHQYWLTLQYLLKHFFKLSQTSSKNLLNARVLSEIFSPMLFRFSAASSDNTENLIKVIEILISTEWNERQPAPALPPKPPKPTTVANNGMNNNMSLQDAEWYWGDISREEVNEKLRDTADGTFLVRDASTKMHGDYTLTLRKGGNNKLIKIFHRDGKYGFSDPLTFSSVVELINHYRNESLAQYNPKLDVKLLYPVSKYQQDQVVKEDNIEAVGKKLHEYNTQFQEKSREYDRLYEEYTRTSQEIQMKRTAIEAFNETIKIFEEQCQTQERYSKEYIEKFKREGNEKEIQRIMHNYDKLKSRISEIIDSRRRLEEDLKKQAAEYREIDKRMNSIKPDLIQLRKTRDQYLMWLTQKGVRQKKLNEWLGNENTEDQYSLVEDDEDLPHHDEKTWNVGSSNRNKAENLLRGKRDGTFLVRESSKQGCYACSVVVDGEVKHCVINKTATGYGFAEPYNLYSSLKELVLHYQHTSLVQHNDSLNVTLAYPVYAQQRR

For `Cc1cc([C@H](C)Nc2ccccc2C(=O)O)c2cc(-c3ccnnc3)cc(=O)n2c1` [Compound 484], the pIC50 was under 5.70 and the “T47D pAKT S473 HTRF IC50 (H1047R): T47D (H1047R) selectivity over SKBR3 (WT)” value was “C (C denotes ≤5-fold)”.
`CONC(=O)c1ccc(-c2cc(=O)n3cc(C)cc([C@@H](C)Nc4ccccc4C(=O)O)c3n2)cc1` [Compound 485]: the pIC50 is under 5.70 and the “T47D pAKT S473 HTRF IC50 (H1047R): T47D (H1047R) selectivity over SKBR3 (WT)” value was “C (C denotes ≤5-fold)”.
For `CONC(=O)c1ccc(-c2cc(=O)n3cc(C)cc([C@H](C)Nc4ccccc4C(=O)O)c3n2)cc1` [Compound 486] the same measures were 6.30 to 7.00 and “A (A denotes >20-fold)”.
The matching figures for `Cc1cc(C(C)Nc2ccccc2C(=O)O)c2nc(-c3ccc(C(=O)NO)cc3)cc(=O)n2c1` (centres unmarked) [Compound 487]: under 5.70 and “C (C denotes ≤5-fold)”.
Turning to `Cc1cc([C@@H](C)Nc2ccccc2C(=O)O)c2nc(-c3ccc4nc(CO)[nH]c4c3)cc(=O)n2c1` [Compound 488], the pIC50 was under 5.70 and the “T47D pAKT S473 HTRF IC50 (H1047R): T47D (H1047R) selectivity over SKBR3 (WT)” value is reported as “C (C denotes ≤5-fold)”.
For `Cc1cc([C@H](C)Nc2ccccc2C(=O)O)c2nc(-c3ccc4nc(CO)[nH]c4c3)cc(=O)n2c1` [Compound 489], the pIC50 is under 5.70 and the “T47D pAKT S473 HTRF IC50 (H1047R): T47D (H1047R) selectivity over SKBR3 (WT)” value is given as “C (C denotes ≤5-fold)”.
The matching figures for `Cc1cc(C(C)Nc2ccccc2C(=O)O)c2nc(N3CCC4(CC3)CC(=O)N4)cc(=O)n2c1` (centres unmarked) [Compound 490]: under 5.70 and “C (C denotes ≤5-fold)”.
The matching figures for `Cc1cc(C(C)Nc2ccccc2C(=O)O)c2nc(N3CCC4(CC3)CNC4=O)cc(=O)n2c1` (centres unmarked) [Compound 491]: under 5.70 and “C (C denotes ≤5-fold)”.
For `Cc1cc(C(C)Nc2ccccc2-c2ccnnc2)c2nc(N3CCOCC3)cc(=O)n2c1` (centres unmarked) [Compound 494] the same measures were under 5.70 and “C (C denotes ≤5-fold)”.
`Cc1cc([C@@H](C)Nc2ccccc2-c2ccnnc2)c2nc(N3CCOCC3)cc(=O)n2c1` [Compound 495]: the pIC50 is under 5.70 and the “T47D pAKT S473 HTRF IC50 (H1047R): T47D (H1047R) selectivity over SKBR3 (WT)” value is on record as “C (C denotes ≤5-fold)”.
`Cc1cc([C@H](C)Nc2ccccc2-c2ccnnc2)c2nc(N3CCOCC3)cc(=O)n2c1` [Compound 496]: the pIC50 was 5.70 to 6.30 and the “T47D pAKT S473 HTRF IC50 (H1047R): T47D (H1047R) selectivity over SKBR3 (WT)” value is on record as “C (C denotes ≤5-fold)”.
Regarding `Cc1cc([C@@H](C)Nc2ccccc2C(=O)O)c2nc(-c3cc(C)c4[nH]c(=O)[nH]c4c3)cc(=O)n2c1` [Compound 497], the pIC50 was 5.70 to 6.30 and the “T47D pAKT S473 HTRF IC50 (H1047R): T47D (H1047R) selectivity over SKBR3 (WT)” value was “B (B denotes 20-fold≥value>5-fold)”.
Regarding `Cc1cc([C@H](C)Nc2ccccc2C(=O)O)c2nc(-c3cc(C)c4[nH]c(=O)[nH]c4c3)cc(=O)n2c1` [Compound 498], the pIC50 was under 5.70 and the “T47D pAKT S473 HTRF IC50 (H1047R): T47D (H1047R) selectivity over SKBR3 (WT)” value is listed as “C (C denotes ≤5-fold)”.
For `Cc1cc([C@@H](C)Nc2ccccc2C(=O)O)c2nc(-c3ccc4[nH]c(=O)[nH]c4c3)cc(=O)n2c1` [Compound 499] the same measures were 6.30 to 7.00 and “A (A denotes >20-fold)”.
The matching figures for `Cc1cc([C@H](C)Nc2ccccc2C(=O)O)c2nc(-c3ccc4[nH]c(=O)[nH]c4c3)cc(=O)n2c1` [Compound 500]: under 5.70 and “C (C denotes ≤5-fold)”.
With `Cc1cc([C@@H](C)Nc2ccccc2C(=O)O)c2nc(-c3ccc(C(=O)NO)cc3)cc(=O)n2c1` [Compound 501], the pIC50 is under 5.70 and the “T47D pAKT S473 HTRF IC50 (H1047R): T47D (H1047R) selectivity over SKBR3 (WT)” value is “C (C denotes ≤5-fold)”.
Regarding `Cc1cc([C@H](C)Nc2ccccc2C(=O)O)c2nc(-c3ccc(C(=O)NO)cc3)cc(=O)n2c1` [Compound 502], the pIC50 is under 5.70 and the “T47D pAKT S473 HTRF IC50 (H1047R): T47D (H1047R) selectivity over SKBR3 (WT)” value was “C (C denotes ≤5-fold)”.
For `CCc1cc(C(=O)NOC)ccc1-c1cc(=O)n2cc(C)cc([C@@H](C)Nc3ccccc3C(=O)O)c2n1` [Compound 503] the same measures were under 5.70 and “C (C denotes ≤5-fold)”.
For `CCc1cc(C(=O)NOC)ccc1-c1cc(=O)n2cc(C)cc([C@H](C)Nc3ccccc3C(=O)O)c2n1` [Compound 504] the same measures were under 5.70 and “C (C denotes ≤5-fold)”.
The matching figures for `Cc1cc(C(C)Nc2ccccc2C(=O)O)c2nc(Nc3ccc4[nH]c(=O)[nH]c4c3)cc(=O)n2c1` (centres unmarked) [Compound 505]: under 5.70 and “C (C denotes ≤5-fold)”.
Turning to `Cc1cc(C(C)Nc2ccccc2C(=O)O)c2nc(-c3ccc4c(c3)NC(=O)C4)cc(=O)n2c1` (centres unmarked) [Compound 506], the pIC50 was 5.70 to 6.30 and the “T47D pAKT S473 HTRF IC50 (H1047R): T47D (H1047R) selectivity over SKBR3 (WT)” value was “B (B denotes 20-fold≥value>5-fold)”.
The matching figures for `CC(=O)Cc1cc2ccc(-c3cc(=O)n4cc(C)cc(C(C)Nc5ccccc5C(=O)O)c4n3)cn2n1` (centres unmarked) [Compound 507]: under 5.70 and “C (C denotes ≤5-fold)”.
For `CC(=O)N1CCC(c2cc(=O)n3cc(C)cc(C(C)Nc4ccccc4C(=O)O)c3n2)CC1` (centres unmarked) [Compound 508] the same measures were under 5.70 and “C (C denotes ≤5-fold)”.
The matching figures for `Cc1cc(C(C)Nc2ccccc2C(=O)O)c2nc(C3CCN(CC(N)=O)CC3)cc(=O)n2c1` (centres unmarked) [Compound 509]: under 5.70 and “C (C denotes ≤5-fold)”.
As to `Cc1cc([C@H](C)Nc2ccccc2C(=O)O)c2nc(C3CCN(CC(N)=O)CC3)cc(=O)n2c1` [Compound 510], the pIC50 is under 5.70 and the “T47D pAKT S473 HTRF IC50 (H1047R): T47D (H1047R) selectivity over SKBR3 (WT)” value was “C (C denotes ≤5-fold)”.
The matching figures for `CC(=O)N1CCCC(c2cc(=O)n3cc(C)cc(C(C)Nc4ccccc4C(=O)O)c3n2)CC1` (centres unmarked) [Compound 511]: under 5.70 and “C (C denotes ≤5-fold)”.
For the molecule `Cc1cc([C@H](C)Nc2ccccc2C(=O)O)c2nc(N3C[C@H](C)C[C@H](C)C3)cc(=O)n2c1` [Compound 513], the pIC50 was under 5.70 and the “T47D pAKT S473 HTRF IC50 (H1047R): T47D (H1047R) selectivity over SKBR3 (WT)” value was “C (C denotes ≤5-fold)”.
The matching figures for `Cc1cc(C(C)Nc2ccccc2C(=O)O)c2nc(-c3ccc4[nH]c(=O)[nH]c4c3)cc(=O)n2c1` (centres unmarked) [Compound 514]: 5.70 to 6.30 and “B (B denotes 20-fold≥value>5-fold)”.
For `Cc1cc(C(C)Nc2ccccc2C(=O)O)c2nc(-c3ccc4[nH]cnc4c3)cc(=O)n2c1` (centres unmarked) [Compound 515] the same measures were 5.70 to 6.30 and “B (B denotes 20-fold≥value>5-fold)”.
Turning to `Cc1cc([C@@H](C)Nc2ccccc2C(=O)O)c2nc(-c3ccc4[nH]cnc4c3)cc(=O)n2c1` [Compound 516], the pIC50 was 6.30 to 7.00 and the “T47D pAKT S473 HTRF IC50 (H1047R): T47D (H1047R) selectivity over SKBR3 (WT)” value is given as “A (A denotes >20-fold)”.
For `Cc1cc([C@H](C)Nc2ccccc2C(=O)O)c2nc(-c3ccc4[nH]cnc4c3)cc(=O)n2c1` [Compound 517] the same measures were under 5.70 and “C (C denotes ≤5-fold)”.
The matching figures for `CC(=O)Oc1nc2ccc(-c3cc(=O)n4cc(C)cc([C@H](C)Nc5ccccc5C(=O)O)c4n3)cn2n1` [Compound 518]: under 5.70 and “C (C denotes ≤5-fold)”.
On to `Cc1cc(C(C)Nc2ccccc2C(=O)O)c2nc(-c3ccc4nc(NC(=O)C5CC5)nn4c3)cc(=O)n2c1` (centres unmarked) [Compound 519], for which the pIC50 is under 5.70 and the “T47D pAKT S473 HTRF IC50 (H1047R): T47D (H1047R) selectivity over SKBR3 (WT)” value is on record as “C (C denotes ≤5-fold)”.
The matching figures for `Cc1cc([C@@H](C)Nc2ccccc2C(=O)O)c2nc(-c3ccc4nc(NC(=O)C5CC5)nn4c3)cc(=O)n2c1` [Compound 520]: under 5.70 and “C (C denotes ≤5-fold)”.
For `Cc1cc([C@H](C)Nc2ccccc2C(=O)O)c2nc(-c3ccc4nc(NC(=O)C5CC5)nn4c3)cc(=O)n2c1` [Compound 521] the same measures were under 5.70 and “C (C denotes ≤5-fold)”.
For `CC(=O)N1CCC(c2cc(=O)n3cc(C)cc([C@@H](C)Nc4ccccc4C(=O)O)c3n2)CC1` [Compound 522] the same measures were under 5.70 and “C (C denotes ≤5-fold)”.
On to `CC(=O)N1CCC(c2cc(=O)n3cc(C)cc([C@H](C)Nc4ccccc4C(=O)O)c3n2)CC1` [Compound 523], for which the pIC50 is 5.70 to 6.30 and the “T47D pAKT S473 HTRF IC50 (H1047R): T47D (H1047R) selectivity over SKBR3 (WT)” value is listed as “B (B denotes 20-fold≥value>5-fold)”.
The matching figures for `Cc1cc(C(C)Nc2ccccc2C(=O)O)c2nc(C3CCN(C(=O)C4(N)CC4)CC3)cc(=O)n2c1` (centres unmarked) [Compound 524]: under 5.70 and “C (C denotes ≤5-fold)”.
For `Cc1cc([C@@H](C)Nc2ccccc2C(=O)O)c2nc(C3CCN(C(=O)C4(N)CC4)CC3)cc(=O)n2c1` [Compound 525] the same measures were under 5.70 and “C (C denotes ≤5-fold)”.
In the case of `Cc1cc([C@H](C)Nc2ccccc2C(=O)O)c2nc(C3CCN(C(=O)C4(N)CC4)CC3)cc(=O)n2c1` [Compound 526], the pIC50 is under 5.70 and the “T47D pAKT S473 HTRF IC50 (H1047R): T47D (H1047R) selectivity over SKBR3 (WT)” value was “C (C denotes ≤5-fold)”.

Values taken from patent US20260132129A1 (Genesis Therapeutics, Inc., priority 2022, published 2026).
